Experimental data as given in paper PMC6817880, “Biochemical and Structural Insights Concerning Triclosan Resistance in a Novel YX7K Type Enoyl-Acyl Carrier Protein Reductase from Soil Metagenome” (Scientific Reports, 2019).

System: T1, FabI2 ENR (metagenomic YX7K type enoyl-acyl carrier protein reductase)
T1 construct: fabI2 gene in pET-30b(+) (BamHI/SalI), vector pAF1-5; His-tag fusion protein from E. coli BL21(DE3), tag cleavage not mentioned
Experiment: spectrophotometric NADH oxidation at […] nm, Michaelis-Menten fit
Format: biochemical, uncultured bacterium
Conditions: 100 nM enzyme, 100 mM sodium phosphate pH 7.0, 25 °C

Compound | Km (200 µM NADH) | Km (60 µM crotonyl-CoA)
C/C=C/C(=O)SCCNC(=O)CCNC(=O)[C@H](O)C(C)(C)COP(=O)(O)OP(=O)(O)OC[C@H]1O[C@@H](n2cnc3c(N)ncnc32)[C@H](O)[C@@H]1OP(=O)(O)O [crotonyl-CoA] | 13.8 µM | –
NC(=O)C1=CN([C@@H]2O[C@H](COP(=O)(O)OP(=O)(O)OC[C@H]3O[C@@H](n4cnc5c(N)ncnc54)[C@H](O)[C@@H]3O)[C@@H](O)[C@H]2O)C=CC1 [NADH] | – | 18.2 µM
